Results taken from US20250235403A1, “COMPOSITIONS AND METHODS OF THE DELIVERY OF ACTIVE AGENTS INCLUDING NUCLEIC ACIDS” (Ohio State Innovation Foundation, priority 2021, published 2025).

What was measured:
MC38 cells = experiment: In vitro gene regulation by R848 NE, IVM NE, R848-IVM NE; assay type: cell-based, murine; details: 8 μM, 24 hours
Description: MC38 cells were seeded at 3×10^5 cells/well in 6-well plates 24 hours before treatments. […] R848 and IVM were both treated at 8 μM, either as free drug solution or in squalene NE. Total RNA was extracted using TRI reagent (Zymo Research) per manufacturer protocol. cDNA was prepared by high-capacity cDNA reverse transcription kit (Invitrogen, Waltham, MA, USA), and real-time qPCR (RT-qPCR) was done using SsoAdvanced™ Universal SYBRR Green Supermix (Bio-Rad Laboratories, Hercules, CA) on a QuantStudio 7 Flex Real-time PCR System. RT-qPCR primers for murine Calreticulin, Hmgb1, Lc3b, and Actb were purchased from Sigma-Aldrich. Actb was selected as the housekeeping gene control. The relative amount of RNA level was calculated and compared according to the 2−ΔΔCt method.

[1] = Saturated solubility study; assay type: physicochemical; details: in squalene-based NE compared with PBS solvent
Description: In the saturated solubility study, R848 or IVM were dissolved in PBS or formulated in NE at 2 mg/ml and incubated at room temperature for 24 hours. Insoluble solid drugs were pelleted down by centrifugation. Supernatants were collected for concentration analysis. R848 concentrations were quantified by UV-Vis spectrometry at 320 nm using a NanoDrop 2000 spectrophotometer. IVM concentrations were quantified by high-performance liquid chromatography (HPLC) using an isocratic mobile phase composed of water/methanol/acetonitrile (8:36:56, v/v/v), an C18 column (Kromasil 150-C-18, 4.6×150 mm), and PDA detection at 230 nm.

[2] = Evaluation of squalene as a fusogenic oil (OD500/OD600 of anionic nanoemulsions); assay type: physicochemical; details: oil/DOPC/CHEMS nanoemulsions; versus medium-chain and long-chain triglyceride
Description: To compare the fusogenicities of different oils, simple anionic nanoemulsions were prepared. The compositions evaluated were: oil/DOPC/CHEMS (30:40:40 mole/mole). Oil was selected from squalene, medium-chain triglyceride (MCT) from Abitec (Captex 300), long-chain triglyceride (LCT, soybean oil from Sigma-Aldrich). DOPC: dioleoylphosphatidylcholine, CHEMS: cholesterol hemisuccinate. The various formulations were prepared at pH 8.0 in PBS and then diluted into various buffers with different pH values and incubated for 5 min at room temperature prior to OD measurement. OD500 and OD600 were measured to indicate particle size, with larger particle size indicating increased fusogenicity.

Structure (SMILES)	Calreticulin mRNA level (MC38 cells)	increase of solubility [1]	fusogenicity [2]
CC[C@H](C)[C@H]1O[C@]2(CC[C@@H]1C)C[C@@H]1C[C@@H](C/C=C(\C)[C@@H](O[C@H]3C[C@H](OC)[C@@H](O[C@H]4C[C@H](OC)[C@@H](O)[C@H](C)O4)[C@H](C)O3)[C@@H](C)/C=C/C=C3\CO[C@@H]4[C@H](O)C(C)=C[C@@H](C(=O)O1)[C@]34O)O2 [IVM, Ivermectin]	did not show significant Calreticulin regulation	100 fold	–
CC(C)=CCC/C(C)=C/CC/C(C)=C/CC/C=C(\C)CC/C=C(\C)CCC=C(C)C [squalene]	–	–	improved fusogenicity
CCOCc1nc2c(N)nc3ccccc3c2n1CC(C)(C)O [R848, Resiquimod]	–	2 fold	–
